“Also recorded” adds a separate entry of the source.
Tests used:
[1] = system: intraspecies E. coli Hfr×E. coli F^− conjugational recombination; assay: intraspecies E. coli Hfr×E. coli F^− conjugational recombination (Thr^+ recombinants per Hfr donor); format: cell-based; settings: mutS^+ (wildtype) or mutS^− background
Text: (§1) FIG. 1: Influence of 2-aminopurine (2-AP) on the efficiency of intraspecies E. coli Hfr×E. coli F^− and interspecies S. typhimurium Hfr×E. coli F^− conjugational recombination. Recipient E. coli strains were either mutS^+ (A, C) or mutS^− (B, D). The recombination frequencies for the selected marker (Thr^+) are expressed per Hfr donor after subtracting unmated revertants. Each number represents the mean (± standard error) of at least three independent experiments.
(§2) The conjugation experiments have been performed under the previously described conditions (Rayssiguier et al., 1989). The overnight cultures of donor strains (2-4×10^9 cells/ml) comprising the DNA sequence to be introduced and recipient strains comprising the autologous DNA sequences were diluted 50-fold into fresh LB medium, with or without 2-aminopurine (Sigma), and grown with gentle shaking (about 150 rpm) in order to obtain 2-4×10^8 cells/ml. In order to obtain the required concentration of cells, about 3 hours of incubation is required. When cells were treated with 2-AP, the growth was slightly slower (the incubation was about 30 minutes longer) compared to the growth without 2-AP. The 2-AP treatment of the donor and recipient strains before mating is preferred as 2-AP must be incorporated in the DNA during replication in order to saturate mismatch repair. […] Recombinants were scored after incubation of 48 hours at 37° C.

MutL protein = target: T1, MutL protein (Escherichia coli, UniProt P23367); assay: identification of the mismatch-repair system component saturated or inhibited by 2-AP (complementation with mutS^+ or mutL^+ plasmids); format: cell-based, E. coli; settings: 2-AP 300 mg/ml (so in the source); plasmids carrying mutS^+ or mutL^+
T1 construct: endogenous in cells; host or cells: E. coli K12 AB1157 derivatives (MX4, MX5); In MX5 (mutL218::Tn10), MutL comes from plasmid pMQ339 (mutL+)
Description: FIG. 2: Identification of the mismatch-repair system component, which is saturated or inhibited with 2-aminopurine (2-AP) treatment. Recipient E. coli strains were either […] (A, B) or mutL^− (C, D). The mismatch repair deficiency was complemented with plasmids carrying mutS^+ (A, B) or mutL^+ genes (C, D). The dose of 2-AP used in these experiments was always 300 mg/ml. The recombination frequencies for the selected marker (Thr^+) are expressed per Hfr donor after subtracting unmated revertants. Each number represents the mean (± standard error) of at least three independent experiments.
Plasmids carrying mutS^+ or mutL^+ genes were indroduced by electrotransformation (using BIO RAD micro pulser apparatus) in MX4 and MX5 strains, respectively.
The conjugation experiments have been performed under the previously described conditions (Rayssiguier et al., 1989). The overnight cultures of donor strains (2-4×10^9 cells/ml) comprising the DNA sequence to be introduced and recipient strains comprising the autologous DNA sequences were diluted 50-fold into fresh LB medium, with or without 2-aminopurine (Sigma), and grown with gentle shaking (about 150 rpm) in order to obtain 2-4×10^8 cells/ml. In order to obtain the required concentration of cells, about 3 hours of incubation is required. […] Recombinants were scored after incubation of 48 hours at 37° C.

[2] = system: donor and recipient strains; assay: growth of donor and recipient strains in LB medium with 2-AP; format: cell-based, E. coli; settings: 37° C., compared to growth without 2-AP (about 3 hours)
Description: as §2, with “repair. The doses of 2-AP tested were: 25 μg/ml, 50 μg/ml, 75 μg/ml, 100 μg/ml, 300 μg/ml and 600 μg/ml. The effect of 2-AP treatment was already significant when 50 μg/ml of 2-AP was used. […] Mating mixtures were prepared by mixing together Hfr and F^− bacteria in a 1:1 ratio. This mixture was filtered through a sterile 0.45-μm-pore size nitrocellulose filter (2.5 cm diameter), using vacuum filtration equipment (MILLIPORE).” for “repair.”

[3] = system: interspecies S. typhimurium Hfr×E. coli F^− conjugational recombination; assay: interspecies S. typhimurium Hfr×E. coli F^− conjugational recombination (Thr^+ recombinants per Hfr donor); format: cell-based
Text: as §1
The conjugation experiments have been performed under the previously described conditions (Rayssiguier et al., 1989). The overnight cultures of donor strains (2-4×10^9 cells/ml) comprising the DNA sequence to be introduced and recipient strains comprising the autologous DNA sequences were diluted 50-fold into fresh LB medium, with or without 2-aminopurine (Sigma), and grown with gentle shaking (about 150 rpm) in order to obtain 2-4×10^8 cells/ml. In order to obtain the required concentration of cells, about 3 hours of incubation is required. When cells were treated with 2-AP, the growth was slightly slower (the incubation was about 30 minutes longer) compared to the growth without 2-AP. The 2-AP treatment of the donor and recipient strains before mating is preferred as 2-AP must be incorporated in the DNA during replication in order to saturate mismatch repair. The doses of 2-AP tested were: 25 μg/ml, 50 μg/ml, 75 μg/ml, 100 μg/ml, 300 μg/ml and 600 μg/ml. The effect of 2-AP treatment was already significant when 50 μg/ml of 2-AP was used. […] Mating mixtures were prepared by mixing together Hfr and F^− bacteria in a 1:1 ratio. This mixture was filtered through a sterile 0.45-μm-pore size nitrocellulose filter (2.5 cm diameter), using vacuum filtration equipment (MILLIPORE). The filters with mating mixtures i.e. mixtures with cells comprising autologous and introduced nucleotide sequences were incubated on fresh LB agar plate (with or without 2-aminopurine) prewarmed at 37° C. […] For this purpose, the M9 medium [supplemented with arginine, histidine, leucine, proline and tryptophane (100 μg/ml each), thiamine (30 μg/ml), glucose (0.4%), and nalidixic acid (40 μg/ml) to counter-select the Hfr donor cells] was used. Threonine was not added to the media in order to select Thr^+ recombinants. Recombinants were scored after incubation of 48 hours at 37° C.
The recombination between these two bacterial species, which have about 16% divergence in their genomic sequences, is very low (10^−8-10^−7; FIG. 1A) compared to intraspecies recombination (about 10^−1; FIG. 1C). Inactivation of the mutS or mutL gene in recipient cells according to the present invention using 2-AP increases about 10^3-10^4-fold the frequency of interspecies recombination (FIG. 1B, FIG. 2A and 2B).

T1 sequence (P23367 whole entry): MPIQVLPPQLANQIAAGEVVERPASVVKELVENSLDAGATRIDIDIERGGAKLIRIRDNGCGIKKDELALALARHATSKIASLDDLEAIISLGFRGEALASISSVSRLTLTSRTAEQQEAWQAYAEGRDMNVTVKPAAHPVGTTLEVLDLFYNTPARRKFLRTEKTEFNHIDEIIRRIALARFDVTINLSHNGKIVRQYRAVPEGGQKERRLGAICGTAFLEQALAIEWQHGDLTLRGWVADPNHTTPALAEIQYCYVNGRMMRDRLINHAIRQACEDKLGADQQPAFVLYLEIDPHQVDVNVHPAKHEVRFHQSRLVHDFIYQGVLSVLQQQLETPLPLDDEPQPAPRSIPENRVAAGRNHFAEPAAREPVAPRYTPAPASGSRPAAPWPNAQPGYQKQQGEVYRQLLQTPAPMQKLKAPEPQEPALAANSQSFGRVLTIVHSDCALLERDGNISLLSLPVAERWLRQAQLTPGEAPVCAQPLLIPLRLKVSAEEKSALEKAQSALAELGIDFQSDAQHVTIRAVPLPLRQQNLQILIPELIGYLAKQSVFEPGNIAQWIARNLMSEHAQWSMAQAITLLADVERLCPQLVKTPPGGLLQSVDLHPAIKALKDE

`Nc1ncc2[nH]cnc2n1` [2-AP, 2-aminopurine] was tested, and the “effect of 2-AP on frequency of intraspecies recombination” value [1] was “not considerably increased; also recorded: not modified”, the “component of the MRS titrated or inactivated by the 2-AP treatment” value (MutL protein) was “MutL protein” and the “additional incubation time needed to reach 2-4×10^8 cells/ml (slower growth) with 2-AP” value [2] was “about 30 minutes”. The “2-AP dose at which the effect on recombination was already significant” value ([3]; doses tested 25-600 μg/ml) was 50 µg/mL, the “2-AP dose of maximal effect on recombination efficiency” value ([3]; doses tested 25-600 μg/ml, further increases did not increase recombination efficiency further) was 100 µg/mL and the “2-AP effect on interspecies recombination in mutS^− recipient background” value ([3]; mutS^− recipient (FIG. 1B) compared with wildtype (FIG. 1A)) was “not as pronounced as in a wildtype background”. The “2-AP concentration range in which an increase of recombination frequency is seen” value ([3]; wild-type recipient cells, in particular at and above 75 μg/ml) was 50 to 600 µg/mL.

— patent US20050176149A1, “Process for the reversible functional inactivation of the mismatch repair system” (priority 2002, published 2005)
